Measured values from PubChem BioAssay AID1963981 (Molecular Pharmacology Branch, DTP, NCI, 2024).

System: 354836-022-R-J1-PDC multicell spheroid viability
Assay: Anticancer human tumor 354836-022-R-J1-PDC patient-derived head and neck squamous cell carcinoma cell line growth inhibition [PI3K]
Conditions: for IC50: curve of first compound; for viability, T/C: stronger effect = lower value
Procedure, shortened: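 High-throughput combination screen: PI3K inhibitors crossed with targeted small molecules on complex spheroids of tumor cells, HUVEC and MSCs at 37 degrees C, 5% CO2. Top concentration was at or near clinical Cmax (otherwise 10 microM), with half-log decrements.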

[1] = second compound 0.0316 µM, first compound 0.0316 µM
[2] = second compound 0.0316 µM, first compound 0.1 µM
[3] = second compound 0.1 µM, first compound 0.0316 µM
[4] = second compound 0.1 µM, first compound 0.1 µM
[5] = second compound 0.316 µM, first compound 0.0316 µM
[6] = second compound 0.316 µM, first compound 0.1 µM
[7] = second compound 1 µM, first compound 0.0316 µM
[8] = second compound 1 µM, first compound 0.1 µM
[9] = second compound 3.16 µM, first compound 0.0316 µM
[10] = second compound 3.16 µM, first compound 0.1 µM
[11] = second compound 10 µM, first compound 0.0316 µM
[12] = second compound 10 µM, first compound 0.1 µM
[13] = second compound 0.0316 µM, first compound 0.316 µM
[14] = second compound 0.0316 µM, first compound 1 µM
[15] = second compound 0.0316 µM, first compound 3.16 µM
[16] = second compound 0.0316 µM, first compound 10 µM
[17] = second compound 0.1 µM, first compound 0.316 µM
[18] = second compound 0.1 µM, first compound 1 µM
[19] = second compound 0.1 µM, first compound 3.16 µM
[20] = second compound 0.1 µM, first compound 10 µM
[21] = second compound 0.316 µM, first compound 0.316 µM
[22] = second compound 0.316 µM, first compound 1 µM
[23] = second compound 0.316 µM, first compound 3.16 µM
[24] = second compound 0.316 µM, first compound 10 µM
[25] = second compound 1 µM, first compound 0.316 µM
[26] = second compound 1 µM, first compound 1 µM
[27] = second compound 1 µM, first compound 3.16 µM
[28] = second compound 1 µM, first compound 10 µM
[29] = second compound 3.16 µM, first compound 0.316 µM
[30] = second compound 3.16 µM, first compound 1 µM
[31] = second compound 3.16 µM, first compound 3.16 µM
[32] = second compound 3.16 µM, first compound 10 µM
[33] = second compound 10 µM, first compound 0.316 µM
[34] = second compound 10 µM, first compound 1 µM
[35] = second compound 10 µM, first compound 3.16 µM
[36] = second compound 10 µM, first compound 10 µM
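Also: spheroids exposed to agents for seven days before the viability read.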

With `CC(=O)c1c(C)c2cnc(Nc3ccc(N4CCNCC4)cn3)nc2n(C2CCCC2)c1=O` + Cc1nc(NC(=O)N2CCCC2C(N)=O)sc1-c1ccnc(C(C)(C)C(F)(F)F)c1 the IC50 (second compound 0.0316 µM) was over 0.1 µM, the IC50 (second compound 0.1 µM) was over 0.1 µM and the IC50 (second compound 0.316 µM) was over 0.1 µM. It also gave an IC50 (second compound 1 µM) of over 0.1 µM, an IC50 (second compound 3.16 µM) of over 0.1 µM and an IC50 (second compound 10 µM) of under 0.000316 µM. It also gave a viability, T/C (second compound 0.0316 µM, first compound 0.000316 µM) of 105%, a viability, T/C (second compound 0.0316 µM, first compound 0.001 µM) of 96.8% and a viability, T/C (second compound 0.0316 µM, first compound 0.00316 µM) of 105%. It also gave a viability, T/C (second compound 0.0316 µM, first compound 0.01 µM) of 83.7%, a viability, T/C [1] of 117% and a viability, T/C [2] of 101%. For the same compound, the viability, T/C (second compound 0.1 µM, first compound 0.000316 µM) was 103%, the viability, T/C (second compound 0.1 µM, first compound 0.001 µM) was 91.8% and the viability, T/C (second compound 0.1 µM, first compound 0.00316 µM) was 92.9%. For the same compound, the viability, T/C (second compound 0.1 µM, first compound 0.01 µM) was 92.8%, the viability, T/C [3] was 89.4% and the viability, T/C [4] was 111%. It also gave a viability, T/C (second compound 0.316 µM, first compound 0.000316 µM) of 84.1%, a viability, T/C (second compound 0.316 µM, first compound 0.001 µM) of 83.5% and a viability, T/C (second compound 0.316 µM, first compound 0.00316 µM) of 85.8%. For the same compound, the viability, T/C (second compound 0.316 µM, first compound 0.01 µM) was 96.6%, the viability, T/C [5] was 86.4% and the viability, T/C [6] was 88.9%. It also gave a viability, T/C (second compound 1 µM, first compound 0.000316 µM) of 71%, a viability, T/C (second compound 1 µM, first compound 0.001 µM) of 89.5% and a viability, T/C (second compound 1 µM, first compound 0.00316 µM) of 74.6%. For the same compound, the viability, T/C (second compound 1 µM, first compound 0.01 µM) was 73.3%, the viability, T/C [7] was 73.5% and the viability, T/C [8] was 85.2%. For the same compound, the viability, T/C (second compound 3.16 µM, first compound 0.000316 µM) was 63%, the viability, T/C (second compound 3.16 µM, first compound 0.001 µM) was 72.1% and the viability, T/C (second compound 3.16 µM, first compound 0.00316 µM) was 67.8%. For the same compound, the viability, T/C (second compound 3.16 µM, first compound 0.01 µM) was 60%, the viability, T/C [9] was 59.4% and the viability, T/C [10] was 67.5%. It also gave a viability, T/C (second compound 10 µM, first compound 0.000316 µM) of 41%, a viability, T/C (second compound 10 µM, first compound 0.001 µM) of 37.3% and a viability, T/C (second compound 10 µM, first compound 0.00316 µM) of 35.7%. It also gave a viability, T/C (second compound 10 µM, first compound 0.01 µM) of 35.4%, a viability, T/C [11] of 34.9% and a viability, T/C [12] of 39.7%.
`CCCS(=O)(=O)Nc1ccc(F)c(C(=O)c2c[nH]c3ncc(-c4ccc(Cl)cc4)cc23)c1F` + Cc1nc(NC(=O)N2CCCC2C(N)=O)sc1-c1ccnc(C(C)(C)C(F)(F)F)c1 gave an IC50 (second compound 0.0316 µM) of 6.08 µM, an IC50 (second compound 0.1 µM) of 5.56 µM and an IC50 (second compound 0.316 µM) of 5.31 µM. It also gave an IC50 (second compound 1 µM) of 4.97 µM, an IC50 (second compound 3.16 µM) of 3.43 µM and an IC50 (second compound 10 µM) of under 0.0316 µM. The viability, T/C [1] was 96.5%, the viability, T/C [2] was 86.5% and the viability, T/C [13] was 97.5%. It also gave a viability, T/C [14] of 99.8%, a viability, T/C [15] of 76.6% and a viability, T/C [16] of 29.8%. It also gave a viability, T/C [3] of 101%, a viability, T/C [4] of 93.8% and a viability, T/C [17] of 96.1%. For the same compound, the viability, T/C [18] was 80.5%, the viability, T/C [19] was 80.2% and the viability, T/C [20] was 22.8%. The viability, T/C [5] was 83.7%, the viability, T/C [6] was 79.6% and the viability, T/C [21] was 75.2%. It also gave a viability, T/C [22] of 80%, a viability, T/C [23] of 75.6% and a viability, T/C [24] of 18.7%. For the same compound, the viability, T/C [7] was 80.1%, the viability, T/C [8] was 76.7% and the viability, T/C [25] was 72%. It also gave a viability, T/C [26] of 77%, a viability, T/C [27] of 70.6% and a viability, T/C [28] of 18%. For the same compound, the viability, T/C [9] was 53.5%, the viability, T/C [10] was 60.8% and the viability, T/C [29] was 63.1%. For the same compound, the viability, T/C [30] was 66.8%, the viability, T/C [31] was 50.7% and the viability, T/C [32] was 11.5%. The viability, T/C [11] was 39.6%, the viability, T/C [12] was 35.3% and the viability, T/C [33] was 35.6%. It also gave a viability, T/C [34] of 39.9%, a viability, T/C [35] of 32% and a viability, T/C [36] of 7.04%.
For `CNC(=O)c1ccc(N2C(=S)N(c3ccc(C#N)c(C(F)(F)F)c3)C(=O)C2(C)C)cc1F` + Cc1nc(NC(=O)N2CCCC2C(N)=O)sc1-c1ccnc(C(C)(C)C(F)(F)F)c1, the IC50 (second compound 0.0316 µM) was over 10 µM, the IC50 (second compound 0.1 µM) was over 10 µM and the IC50 (second compound 0.316 µM) was over 10 µM. For the same compound, the IC50 (second compound 1 µM) was over 10 µM, the IC50 (second compound 3.16 µM) was over 10 µM and the IC50 (second compound 10 µM) was under 0.0316 µM. The viability, T/C [1] was 108%, the viability, T/C [2] was 92.4% and the viability, T/C [13] was 100%. It also gave a viability, T/C [14] of 96%, a viability, T/C [15] of 123% and a viability, T/C [16] of 108%. The viability, T/C [3] was 95.5%, the viability, T/C [4] was 93.4% and the viability, T/C [17] was 111%. For the same compound, the viability, T/C [18] was 87.9%, the viability, T/C [19] was 109% and the viability, T/C [20] was 99.2%. It also gave a viability, T/C [5] of 86.8%, a viability, T/C [6] of 99.6% and a viability, T/C [21] of 89.1%. It also gave a viability, T/C [22] of 96.7%, a viability, T/C [23] of 98.2% and a viability, T/C [24] of 88%. For the same compound, the viability, T/C [7] was 93.5%, the viability, T/C [8] was 84.5% and the viability, T/C [25] was 76.3%. The viability, T/C [26] was 98.7%, the viability, T/C [27] was 87% and the viability, T/C [28] was 82.4%. It also gave a viability, T/C [9] of 54.5%, a viability, T/C [10] of 71.1% and a viability, T/C [29] of 63.3%. It also gave a viability, T/C [30] of 71.3%, a viability, T/C [31] of 68% and a viability, T/C [32] of 72.1%. The viability, T/C [11] was 35.1%, the viability, T/C [12] was 35% and the viability, T/C [33] was 35.7%. It also gave a viability, T/C [34] of 39.8%, a viability, T/C [35] of 48.9% and a viability, T/C [36] of 37.5%.
